Assay results reported in PubChem BioAssay (NCI).
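Step 1: Grow cells in 96-well plates. Step 2: Expose to compound for 48 hours at 5 concentrations. Step 3: Interpolate endpoints linearly; if unreached, use highest concentration. GI50 marks 50% less growth. TGI is the concentration that stops growth completely.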

What was measured:
Test in all cases: growth of human tumour cells (NCI), 48 h
786-0 renal = tested on: 786-0 renal
A498 renal = tested on: A498 renal
A549 NSCLC = tested on: A549 NSCLC
ACHN renal = tested on: ACHN renal
BT-549 breast = tested on: BT-549 breast
CAKI-1 renal = tested on: CAKI-1 renal
CCRF-CEM leukemia = tested on: CCRF-CEM leukemia
COLO 205 colon = tested on: COLO 205 colon
DU-145 prostate = tested on: DU-145 prostate
EKVX NSCLC = tested on: EKVX NSCLC
HCC-2998 colon = tested on: HCC-2998 colon
HCT-116 colon = tested on: HCT-116 colon
HCT-15 colon = tested on: HCT-15 colon
HL-60(TB) leukemia = tested on: HL-60(TB) leukemia
HOP-62 NSCLC = tested on: HOP-62 NSCLC
HOP-92 NSCLC = tested on: HOP-92 NSCLC
HS 578T breast = tested on: HS 578T breast
HT29 colon = tested on: HT29 colon
IGROV1 ovarian = tested on: IGROV1 ovarian
K-562 leukemia = tested on: K-562 leukemia
KM12 colon = tested on: KM12 colon
LOX IMVI melanoma = tested on: LOX IMVI melanoma
M14 melanoma = tested on: M14 melanoma
MALME-3M melanoma = tested on: MALME-3M melanoma
MCF7 breast = tested on: MCF7 breast
MDA-MB-231 breast = tested on: MDA-MB-231 breast
MDA-MB-435 = tested on: MDA-MB-435
MOLT-4 leukemia = tested on: MOLT-4 leukemia
NCI-H226 lung = tested on: NCI-H226 lung
NCI-H23 lung = tested on: NCI-H23 lung
NCI-H460 lung = tested on: NCI-H460 lung
NCI-H522 lung = tested on: NCI-H522 lung
NCI/ADR-RES ovarian = tested on: NCI/ADR-RES ovarian
OVCAR-3 ovarian = tested on: OVCAR-3 ovarian
OVCAR-4 ovarian = tested on: OVCAR-4 ovarian
OVCAR-5 ovarian = tested on: OVCAR-5 ovarian
OVCAR-8 ovarian = tested on: OVCAR-8 ovarian
PC-3 prostate = tested on: PC-3 prostate
RPMI-8226 leukemia = tested on: RPMI-8226 leukemia
RXF 393 renal = tested on: RXF 393 renal
SF-268 CNS = tested on: SF-268 CNS
SF-295 CNS = tested on: SF-295 CNS
SF-539 CNS = tested on: SF-539 CNS
SK-MEL-2 melanoma = tested on: SK-MEL-2 melanoma
SK-MEL-28 melanoma = tested on: SK-MEL-28 melanoma
SK-MEL-5 melanoma = tested on: SK-MEL-5 melanoma
SK-OV-3 ovarian = tested on: SK-OV-3 ovarian
SN12C renal = tested on: SN12C renal
SNB-19 CNS = tested on: SNB-19 CNS
SNB-75 CNS = tested on: SNB-75 CNS
SR leukemia = tested on: SR leukemia
SW-620 colon = tested on: SW-620 colon
T-47D breast = tested on: T-47D breast
TK-10 renal = tested on: TK-10 renal
U251 CNS = tested on: U251 CNS
UACC-62 melanoma = tested on: UACC-62 melanoma
UO-31 renal = tested on: UO-31 renal
UACC-257 melanoma = tested on: UACC-257 melanoma

## COc1cccc(Oc2ccccc2NC(=O)CNC(=O)c2cccc3ccccc23)c1
786-0 renal
  GI50: 0.183 µM
  TGI: > 25 µM
A498 renal
  GI50: 0.115 µM
  TGI: 2.11 µM
A549 NSCLC
  GI50: 0.315 µM
  TGI: > 25 µM
ACHN renal
  GI50: 0.398 µM
  TGI: > 25 µM
BT-549 breast
  GI50: 0.298 µM
  TGI: 10.2 µM
CAKI-1 renal
  GI50: 0.917 µM
  TGI: > 25 µM
CCRF-CEM leukemia
  GI50: 0.36 µM
  TGI: > 25 µM
COLO 205 colon
  GI50: 0.283 µM
  TGI: 0.949 µM
DU-145 prostate
  GI50: 0.703 µM
  TGI: > 25 µM
EKVX NSCLC
  GI50: 1.28 µM
  TGI: > 25 µM
HCC-2998 colon
  GI50: 1.25 µM
  TGI: > 25 µM
HCT-116 colon
  GI50: 0.0962 µM
  TGI: 3.77 µM
HCT-15 colon
  GI50: 0.129 µM
  TGI: > 25 µM
HL-60(TB) leukemia
  GI50: 0.081 µM
  TGI: 0.237 µM
HOP-62 NSCLC
  GI50: 0.302 µM
  TGI: > 25 µM
HOP-92 NSCLC
  GI50: 0.202 µM
  TGI: 14.9 µM
HS 578T breast
  GI50: 0.381 µM
  TGI: > 25 µM
HT29 colon
  GI50: 0.11 µM
  TGI: 1.04 µM
IGROV1 ovarian
  GI50: 1.04 µM
  TGI: > 25 µM
K-562 leukemia
  GI50: 0.13 µM
  TGI: > 25 µM
KM12 colon
  GI50: 0.19 µM
  TGI: 19.6 µM
LOX IMVI melanoma
  GI50: 0.267 µM
  TGI: > 25 µM
M14 melanoma
  GI50: 0.157 µM
  TGI: > 25 µM
MALME-3M melanoma
  GI50: 16.9 µM
  TGI: > 25 µM
MCF7 breast
  GI50: 0.1 µM
  TGI: > 25 µM
MDA-MB-231 breast
  GI50: 0.776 µM
  TGI: 7.68 µM
MDA-MB-435
  GI50: 0.0711 µM
  TGI: 0.256 µM
MOLT-4 leukemia
  GI50: 0.654 µM
  TGI: > 25 µM
NCI-H226 lung
  GI50: 2.49 µM
  TGI: > 25 µM
NCI-H23 lung
  GI50: 0.735 µM
  TGI: > 25 µM
NCI-H460 lung
  GI50: 0.298 µM
  TGI: 4.53 µM
NCI-H522 lung
  GI50: 0.176 µM
  TGI: 2.02 µM
NCI/ADR-RES ovarian
  GI50: 0.238 µM
  TGI: 5.69 µM
OVCAR-3 ovarian
  GI50: 0.0999 µM
  TGI: 1.25 µM
OVCAR-4 ovarian
  GI50: 0.77 µM
  TGI: > 25 µM
OVCAR-5 ovarian
  GI50: 1.13 µM
  TGI: > 25 µM
OVCAR-8 ovarian
  GI50: 0.684 µM
  TGI: > 25 µM
PC-3 prostate
  GI50: 0.284 µM
  TGI: > 25 µM
RPMI-8226 leukemia
  GI50: 0.953 µM
  TGI: 13.7 µM
RXF 393 renal
  GI50: 0.165 µM
  TGI: 2.19 µM
SF-268 CNS
  GI50: 0.547 µM
  TGI: > 25 µM
SF-295 CNS
  GI50: 0.111 µM
  TGI: > 25 µM
SF-539 CNS
  GI50: 0.225 µM
  TGI: 1.07 µM
SK-MEL-2 melanoma
  GI50: 0.181 µM
  TGI: > 25 µM
SK-MEL-28 melanoma
  GI50: 4.35 µM
  TGI: > 25 µM
SK-MEL-5 melanoma
  GI50: 0.216 µM
  TGI: 3.65 µM
SK-OV-3 ovarian
  GI50: 0.494 µM
  TGI: 12.3 µM
SN12C renal
  GI50: 1.44 µM
  TGI: > 25 µM
SNB-19 CNS
  GI50: 0.617 µM
  TGI: > 25 µM
SNB-75 CNS
  GI50: 0.128 µM
  TGI: > 25 µM
SR leukemia
  GI50: 0.115 µM
  TGI: > 25 µM
SW-620 colon
  GI50: 0.164 µM
  TGI: > 25 µM
T-47D breast
  GI50: 0.138 µM
  TGI: 17.6 µM
TK-10 renal
  GI50: 1.58 µM
  TGI: > 25 µM
U251 CNS
  GI50: 0.242 µM
  TGI: > 25 µM
UACC-62 melanoma
  GI50: 0.209 µM
  TGI: > 25 µM
UO-31 renal
  GI50: 1.8 µM
  TGI: > 25 µM

## COc1ccc2c(c1)C(=O)c1c-2c(OCCN(C)C)nc2ccccc12
786-0 renal
  GI50: 4.06 µM
  TGI: 16.5 µM
A498 renal
  GI50: 1.87 µM
  TGI: 10.7 µM
A549 NSCLC
  GI50: 1.33 µM
  TGI: 4.54 µM
ACHN renal
  GI50: 1.62 µM
  TGI: 5.47 µM
BT-549 breast
  GI50: 12 µM
  TGI: 26 µM
CAKI-1 renal
  GI50: 1.47 µM
  TGI: 4.14 µM
CCRF-CEM leukemia
  GI50: 0.825 µM
  TGI: 10.4 µM
COLO 205 colon
  GI50: 1.83 µM
  TGI: 10.1 µM
DU-145 prostate
  GI50: 2.91 µM
  TGI: 9 µM
EKVX NSCLC
  GI50: 2.05 µM
  TGI: 7.8 µM
HCC-2998 colon
  GI50: 3.89 µM
  TGI: 14.5 µM
HCT-116 colon
  GI50: 0.768 µM
  TGI: 10.8 µM
HCT-15 colon
  GI50: 2.02 µM
  TGI: 11.3 µM
HL-60(TB) leukemia
  GI50: 3.19 µM
  TGI: 15.4 µM
HOP-62 NSCLC
  GI50: 2.29 µM
  TGI: 12.7 µM
HOP-92 NSCLC
  GI50: 8.05 µM
  TGI: 81.8 µM
HS 578T breast
  GI50: 3.57 µM
  TGI: 12.2 µM
HT29 colon
  GI50: 1.46 µM
  TGI: 5.01 µM
IGROV1 ovarian
  GI50: 2.97 µM
  TGI: 14.8 µM
K-562 leukemia
  GI50: 1.6 µM
  TGI: 10.3 µM
KM12 colon
  GI50: 1.19 µM
  TGI: 3.28 µM
LOX IMVI melanoma
  GI50: 1.54 µM
  TGI: 4.91 µM
M14 melanoma
  GI50: 3.85 µM
  TGI: 15 µM
MALME-3M melanoma
  GI50: 2.46 µM
  TGI: 8.65 µM
MCF7 breast
  GI50: 1.76 µM
  TGI: 10.9 µM
MDA-MB-231 breast
  GI50: 4.02 µM
  TGI: 20.8 µM
MDA-MB-435
  GI50: 2.58 µM
  TGI: 10.1 µM
MOLT-4 leukemia
  GI50: 0.524 µM
  TGI: 5.64 µM
NCI-H226 lung
  GI50: 2.15 µM
  TGI: 10.4 µM
NCI-H23 lung
  GI50: 3.8 µM
  TGI: 16.7 µM
NCI-H460 lung
  GI50: 1.15 µM
  TGI: 4.33 µM
NCI-H522 lung
  GI50: 1.87 µM
  TGI: 4.75 µM
NCI/ADR-RES ovarian
  GI50: 3.05 µM
  TGI: 14.5 µM
OVCAR-3 ovarian
  GI50: 2.48 µM
  TGI: 7.01 µM
OVCAR-4 ovarian
  GI50: 3.03 µM
  TGI: 10.8 µM
OVCAR-5 ovarian
  GI50: 4.53 µM
  TGI: 18.5 µM
OVCAR-8 ovarian
  GI50: 2.54 µM
  TGI: 11.9 µM
PC-3 prostate
  GI50: 4.99 µM
  TGI: 21.4 µM
RPMI-8226 leukemia
  GI50: 2.85 µM
  TGI: 13.9 µM
RXF 393 renal
  GI50: 3.79 µM
  TGI: 15.7 µM
SF-268 CNS
  GI50: 2.34 µM
  TGI: 10.7 µM
SF-539 CNS
  GI50: 4.75 µM
  TGI: 17.9 µM
SK-MEL-2 melanoma
  GI50: 12.2 µM
  TGI: 25.7 µM
SK-MEL-28 melanoma
  GI50: 4.53 µM
  TGI: 15.4 µM
SK-MEL-5 melanoma
  GI50: 4.6 µM
  TGI: 16.6 µM
SK-OV-3 ovarian
  GI50: 4.87 µM
  TGI: 35.3 µM
SN12C renal
  GI50: 1.69 µM
  TGI: 10.6 µM
SNB-19 CNS
  GI50: 2.68 µM
  TGI: 12.4 µM
SNB-75 CNS
  GI50: 7.62 µM
  TGI: 21.6 µM
SR leukemia
  GI50: 0.998 µM
  TGI: 6.76 µM
SW-620 colon
  GI50: 0.823 µM
  TGI: 3.26 µM
T-47D breast
  GI50: 4.05 µM
  TGI: 18.3 µM
TK-10 renal
  GI50: 7.56 µM
  TGI: 20.8 µM
U251 CNS
  GI50: 2.28 µM
  TGI: 9.87 µM
UACC-257 melanoma
  GI50: 3.06 µM
  TGI: 10.9 µM
UACC-62 melanoma
  GI50: 3.9 µM
  TGI: 15.7 µM
UO-31 renal
  GI50: 0.962 µM
  TGI: 2.76 µM
